# Source: patent publication US20160039852A1, “THERAPEUTIC USES OF BISPHOSPHONATES” (THE UNIVERSITY OF SHEFFIELD, priority 2013, published 2016)
# “Also recorded” adds a separate entry of the source.
# Assays:
# [1] = tested on: human mesenchymal stem cells (hMSC); assay: Colony Forming Unit-Fibroblast assay (CFU-F), clonogenic ability of hMSC; assay type: cell-based; conditions: 14 days, listed as Zol
# Method: Human MSC from established cultures were plated at 10 cells/cm^2 in duplicates in MSC medium. The plates were incubated for 14 days at 37° C. in 5% carbon dioxide in air. At day 14 cultures were stained with Wright's Giemsa stain (VWR International, Leicestershire, UK). Briefly, media was aspirated and the plates were washed with PBS (Gibco). The plates were air dried for 5 minutes and fixed with methanol (Fisher Scientific, Loughborough, UK) for 5 minutes. Wright's Geimsa stain (VWR International) was thereafter added to the plates for 5 minutes and then plates were washed under running tap water. The purple stained colonies were counted using an inverted light microscope (Leica Microsystems, UK). Colonies containing a minimum of 50 cells were considered as one Colony forming unit-fibroblast (CFU-F).
# [2] = tested on: human mesenchymal stem cells (hMSC); assay: Expression of osteogenic and adipogenic differentiation markers in hMSC; assay type: cell-based; conditions: CBFA-1, OPN, ALP, OC, LPL, PPAR-γ normalised to L-32; 14 days supplements
# [3] = tested on: human mesenchymal stem cells (hMSC); assay: Immunostaining of γH2AX DNA damage foci (double stranded breaks) in hMSC; assay type: cell-based
# Method: DNA damage was induced by exposing hMSC to ^137Cs Gamma source. Cells were washed with PBS and fixed with 4% Para-formaldehyde for […]. Cells were then washed with PBS permeabilized with 0.5% Triton-X (Sigma, UK) for […] and blocked with 5% normal goat serum (DAKO, Glostrup, Denmark) in PBS for 1 hr. This was followed by incubation with primary antibody, anti-phospho histone H2AX (Ser139) (Millipore, Massachusetts, USA) used at 1:800 in 5% normal goat serum, overnight at 4° C. Cells were then washed in PBS and incubated in secondary Anti mouse IgG Fluorescein Isothiocyanate (FITC) conjugated (Insight Biotechnology, Santa Cruz, USA) at 1:200 in PBS for 1 hour at room temperature. The cover-slips were mounted on slides with mounting media (VectaShield) containing 4',6-diamidino-2-phenylindole (DAPI) to stain the nuclei. […] Cells were viewed using in an Inverted Zeiss LSM 510 NLO microscope equipped with Argon (Ar) laser (488 nm) 30 mW to image the fluorescent marker FITC and UV lamp to image DAPI stained nuclei. Five to seven fields consisting of 25 cells in total were randomly selected from a tile scan (20×) and individual cells viewed at 63× were then scored for γH2AX DNA damage foci using ImageJ 1.45 software (http://rsbweb.nih.gov/ij/). One of the factors affecting cellular lifespan is accumulation of DNA damage.
# [4] = tested on: murine multiple myeloma line, 5TGM1; assay: γH2AX DNA damage foci in 5TGM1 multiple myeloma line after irradiation; assay type: cell-based; conditions: irradiated in presence versus absence of Zol, 4 h after irradiation, n=3
# mTOR pathway = assay: Western blot of mTOR pathway effectors in osteosarcoma line MG63; assay type: cell-based, human; conditions: MG63, Zol (1 μM) for 72 h, n=3
# Method: (B) A representative example of human mesenchymal stem cells (MSC) and human osteosarcoma cell line MG63 cultured in presence or absence of Zol (1 μM) for 72 h and assessed for the expression of phosphorylated (Ser 473) AKT, AKT, phosphorylated p70S6K p70S6K and GAPDH by western blot;
# Protein lysates (50 μg) were diluted in equal volume of 2× Laemmli buffer (Gibco) containing Dithiothreitol (DTT, Sigma,UK). The samples were heated at 95° C. for 5 minutes and loaded on a 12% Tris-glycine gel. After electro-blotting, membranes were blocked with 5% Bovine serum albumin (BSA) in 0.1% Tween 20 in PBS (PBS-T) for detection of glyceraldehyde-3-phosphate dehydrogenase (GAPDH) and 5% dry milk in PBS-T for detection of unprenylated RAP1A (Santacruz Biotechnology, Santa Cruz, USA). […] Detection was carried out using enhanced chemi-luminescence plus ECL reaction kit (GE Healthcare, Buckinghamshire, UK) and quantification of protein expression was carried out using image J software.
# To test this, the inventors assessed the phosphorylation state of two effectors downstream of TORC1 and TORC2, p-P70S6K and pAKT (Ser473) respectively (FIG. 7A), in hMSC in presence or absence of Zol. […]
# [5] = tested on: normal human dermal fibroblasts; assay: γH2AX DNA damage foci in human dermal fibroblasts after irradiation; assay type: cell-based; conditions: 1Gy, Zol (1 μM)
# Method: (B) Number of yH2AX DNA damage foci in human dermal fibroblasts (n=4 cultures) not irradiated (UI) or exposed to irradiation (IR) 1Gy in the presence or absence of Zol (1 μM) and with the addition of Farnesol (FOH) or geranylgeraniol (GGOH).
smiles,measurement,setting,value
O=P(O)(O)C(O)(Cn1ccnc1)P(=O)(O)O [Zoledronate],number of clonogenic progenitors (CFU-F),"[1]; hMSC at passage 8, not irradiated, versus PBS control",significant increase; also recorded: higher clonogenic ability
same,number of CFU-F after irradiation (clonogenic ability),"[1]; hMSC irradiated at 1, 3 and 5Gy versus non irradiated, in presence of Zol",no significant difference; also recorded: complete rescue of the clonogenic ability
same,expression of osteogenic and adipogenic differentiation markers,[2],increased
same,"DNA repair (γH2AX DNA damage foci), FIG. 9","[3]; 1 μM, 4 hours after irradiation, Compound C compared with Zol",significant decrease
same,number of γH2AX DNA damage foci after irradiation,"[3]; 1Gy irradiation, compound at 1 μM, foci at 4 h (Zol also 12, 24 h) versus PBS, listed as Zol",significant decrease; also recorded: significant reduction
same,number of γH2AX DNA damage foci after irradiation,[3]; 3 and 5Gy irradiation (data not shown),significant decrease
same,"number of γH2AX DNA damage foci, dose response",[3]; increasing dosing with Zol,reduced number of DNA damage foci
same,incidence of DNA damage foci with passage,"[3]; passage 3 (early) and p10 (late), no irradiation, listed as Zol",significantly higher in untreated hMSC; also recorded: reduced
same,number of γH2AX DNA damage foci,[4],No significant difference
same,p-P70S6K,mTOR pathway,no significant difference
same,pAKT (Ser473),mTOR pathway,no significant difference
same,DNA repair ability following irradiation (γH2AX foci),[5],enhances DNA repair ability
